Measured values taken from PMC6009911, “Inhibition of human cytochromes P450 2A6 and 2A13 by flavonoids, acetylenic thiophenes and sesquiterpene lactones from Pluchea indica and Vernonia cinerea” (Journal of Enzyme Inhibition and Medicinal Chemistry, 2017).
Like-named read-outs stand apart in the source and are kept apart here.

Columns and labels:
Format in all cases: biochemical
CYP2A13 [1] = molecular target: T1, CYP2A13 (Homo sapiens, UniProt Q16696); assay: Effects of trapping agents and dialysis on inactivation of CYP2A13; settings: CYP2A13 inhibition reaction mixture, probe coumarin, compound 5 µM
T1 construct: made in house
T1 sequence (Q16696 1-494): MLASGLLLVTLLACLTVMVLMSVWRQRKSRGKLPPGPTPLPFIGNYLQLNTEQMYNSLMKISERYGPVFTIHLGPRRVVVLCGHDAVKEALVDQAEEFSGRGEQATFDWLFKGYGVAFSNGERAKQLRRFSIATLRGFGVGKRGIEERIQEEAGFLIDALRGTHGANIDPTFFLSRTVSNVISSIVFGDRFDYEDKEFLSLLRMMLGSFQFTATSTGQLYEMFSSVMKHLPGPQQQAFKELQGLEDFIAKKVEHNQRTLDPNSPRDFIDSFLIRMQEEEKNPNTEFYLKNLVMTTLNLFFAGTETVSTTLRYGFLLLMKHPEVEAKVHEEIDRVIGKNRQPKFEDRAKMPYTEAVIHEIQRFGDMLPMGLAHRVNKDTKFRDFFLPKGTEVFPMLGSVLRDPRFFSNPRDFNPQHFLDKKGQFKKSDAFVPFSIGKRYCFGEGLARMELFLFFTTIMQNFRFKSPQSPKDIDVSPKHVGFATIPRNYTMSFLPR
Method in brief: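 Recombinant enzyme preincubated with inhibitor and NADPH for 0, 10, 20 and 30 min; KI and kinact taken from double-reciprocal plots of kobs versus inhibitor concentration by linear regression. Reversibility probed by dialysis and by adding trapping agents (GSH, semicarbazide, catalase or potassium ferricyanide). Methoxsalen served as mechanism-based control.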

CYP2A6 [2] = molecular target: T2, CYP2A6 (Homo sapiens, UniProt P11509); assay: Inhibition of CYP2A6-mediated coumarin 7-hydroxylation, enzymatic reconstitution assay; parameters: made in house
T2 sequence (P11509 1-494): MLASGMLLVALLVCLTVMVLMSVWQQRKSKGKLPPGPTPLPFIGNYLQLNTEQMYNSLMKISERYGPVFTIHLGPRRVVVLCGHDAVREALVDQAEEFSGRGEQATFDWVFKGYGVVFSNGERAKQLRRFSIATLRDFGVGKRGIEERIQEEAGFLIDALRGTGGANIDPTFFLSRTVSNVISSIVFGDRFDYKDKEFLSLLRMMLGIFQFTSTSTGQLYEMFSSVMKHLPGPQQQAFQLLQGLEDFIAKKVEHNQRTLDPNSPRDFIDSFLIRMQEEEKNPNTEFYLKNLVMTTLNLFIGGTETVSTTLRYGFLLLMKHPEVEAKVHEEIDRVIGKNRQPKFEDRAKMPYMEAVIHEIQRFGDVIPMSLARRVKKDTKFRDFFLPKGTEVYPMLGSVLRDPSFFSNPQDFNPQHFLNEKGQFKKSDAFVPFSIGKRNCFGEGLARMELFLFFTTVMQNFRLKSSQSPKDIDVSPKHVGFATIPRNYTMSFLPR
Method: Inhibitory effect of plant extracts, fractions, subfractions and constituents was determined by inhibition assay on CYP2A6- and CYP2A13-mediated coumarin 7-hydroxylation. The recombinant human CYP2A6, CYP2A13 and rat NADPH-dependent cytochrome P450 oxidoreductase (CYPOR) proteins were expressed, purified, according to the methods previously described. […] Rate of 7-hydroxycoumarin product formation was measured on spectrofluorometer (Shimadzu, Kyoto, Japan) at λex = 355 nm, λem = 460 nm. Inhibition effects were determined by incubation with extracts, fractions or purified compounds with coumarin substrate in the reaction mixture and calculated as per cent relative inhibition compared with vehicle control reaction[20] and IC50 values were calculated using GraphPad Prism 5 (GraphPad Software Inc., La Jolla, CA).
(§1) MBI requires NADPH and time to generate reactive intermediate as inhibitor and ultimately inactivates the enzyme. MBI was evaluated by pre-incubation with each test inhibitor in the reaction at different time periods (0, 10, 20 and 30 min) in the presence of NADPH for time-dependent assay, as described. The apparent inactivation constants, KI and Kinact, were obtained from double reciprocal plots of kobs versus inhibitor concentrations by linear regression analysis on GraphPad Prism 5. Methoxsalen was used as a control mechanism-based inhibitor for time- and NADPH-dependent inhibition assays.

CYP2A13 [3] = molecular target: T1, CYP2A13; assay: Inhibition of CYP2A13-mediated coumarin 7-hydroxylation, enzymatic reconstitution assay
Method in brief: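 Purified recombinant CYP2A6 or CYP2A13 reconstituted with rat CYPOR; coumarin 7-hydroxylation read by 7-hydroxycoumarin fluorescence (ex 355/em 460 nm), inhibition as % of vehicle control with IC50 fitted.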

CYP2A13 [4] = molecular target: T1, CYP2A13; assay: Mechanism-based (time- and NADPH-dependent) inactivation of CYP2A13
Method in brief: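 Inhibitor preincubated with enzyme and NADPH for 0, 10, 20 and 30 min before the reaction. KI and Kinact derived from double reciprocal plots of kobs versus inhibitor concentration by linear regression; methoxsalen served as reference inactivator.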

CYP2A6 [5] = molecular target: T2, CYP2A6; assay: Effects of trapping agents and dialysis on inactivation of CYP2A6; parameters: made in house; settings: CYP2A6 inhibition reaction mixture, probe coumarin, compound 5 µM
Method: as §1
To explore whether inactivation of CYP2As by thiophenes 9–11 and of CYP2A13 by hirsutinolides 5-8 could be reversed, the removal of reversible inhibitory compounds by dialysis and addition of trapping agents (GSH, semicarbazide, catalase or potassium ferricyanide) in the inhibition reaction mixture were performed. […] Similarly, mechanism-based inactivation of both CYP2A6 and CYP2A13 by thiophenes 9–11 could not be reversed (Table 3).

CYP2A6 [6] = molecular target: T2, CYP2A6; assay: Inhibition of CYP2A6-mediated nicotine metabolism; parameters: made in house; settings: compound at IC50 value; nicotine 50 μM; 30 min; Supplemental Figure S2
Method: Supplementary Figure S2. Inhibition effects of thiophene 11 on CYP2A6-mediated […]
mediated nicotine metabolism (B). Nicotine metabolism in the presence and absence of inhibitory test compounds, at IC50 value, was performed by incubation of the reaction mixture with nicotine substrate (a final concentration of 50 μM) prior to initiation of each reaction with 50 μM NADPH at room temperature. Each reaction was terminated by addition of ice-cold acetronitrile at 30 min incubation and 50 pmol 7-hydroxycoumarin as internal standard was added. The reaction was centrifuged (12,000 rpm, 10 min, 4 °C) and 20 μl of each sample was analyzed on symmetry RP-C18 column (3.9×150 mm). Gradient condition was isocratic of 12% ACN: 2-propanol (7:3) in 10 mM potassium phosphate buffer (pH 7.4) at flow rate of 1 ml/min. The nicotine peak area in each reaction was compared with that of time zero. The enzyme activity was determined as percent substrate consumption over 30 min. The reactions were […]
(1 picture or pasted object on this page, not shown here)

CYP2A6 [7] = molecular target: T2, CYP2A6; assay: Mechanism-based (time- and NADPH-dependent) inactivation of CYP2A6; parameters: made in house
Method: as §1

[8] = read-out: Per cent remaining activity, 70 μM K3Fe(CN)6
[9] = read-out: Per cent remaining activity, 2 mM GSH
[10] = read-out: Per cent remaining activity, 5 mM semicarbazide
[11] = read-out: Per cent remaining activity, 2000 U catalase
[12] = read-out: Per cent remaining activity, Dialysis (+) NADPH
[13] = read-out: Per cent remaining activity, Dialysis (−) NADPH
[14] = read-out: Per cent remaining activity, Pre-incubation
[15] = time- and concentration-dependent inactivation

For `CC#Cc1ccc(C#CC#CC(O)CO)s1` (centres unmarked) [Thiophene 11, 2-(prop-1-inyl)-5–(5,6-dihydroxyhexa-1,3-diinyl) thiophene], which activity at 5 µM (CYP2A13 [1]; [8]) is on record?
The activity at 5 µM was 18.87 ± 0.18%.

What about the activity at 5 µM (CYP2A13 [1]; [9]) of the same compound?
Its activity at 5 µM is 23.5 ± 1.72%.

And the activity at 5 µM (CYP2A13 [1]; [10])?
Its activity at 5 µM is 19.6 ± 2.73%.

And the activity at 5 µM (CYP2A13 [1]; [11])?
The activity at 5 µM was 19.5 ± 2.95%.

What about the activity at 5 µM (CYP2A13 [1]; [12]) of the same compound?
Its activity at 5 µM is 19.6 ± 4.21%.

And the activity at 5 µM (CYP2A13 [1]; [13])?
Its activity at 5 µM is 96.84 ± 0.73%.

What about the activity at 5 µM (CYP2A13 [1]; [14]) of the same compound?
Its activity at 5 µM is 20.2 ± 2.76%.

What about the “CYP2A6 Mode of inhibition” value (CYP2A6 [2]) of the same compound?
Its value is “Mixed type”.

And the IC50 (CYP2A6 [2]; 10-min pre-incubation in the presence of NADPH, read-out: IC50 CYP2A6 Pre-incubation)?
The IC50 was 180 ± 10 nM.

What about the IC50 (CYP2A6 [2]; coincubation, coumarin 2 µM, read-out: IC50 CYP2A6 Coincubation) of the same compound?
Its IC50 is 3900 ± 200 nM.

What about the Ki (CYP2A6 [2]; coumarin 0–40 µM) of the same compound?
The Ki was 1800 ± 180 nM.

And the “CYP2A13 Mode of inhibition” value (CYP2A13 [3])?
Its value is “Mixed type”.

And the IC50 (CYP2A13 [3]; 10-min pre-incubation in the presence of NADPH, read-out: IC50 CYP2A13 Pre-incubation)?
Its IC50 is 1470 ± 120 nM.

What about the IC50 (CYP2A13 [3]; coincubation, coumarin 2 µM, read-out: IC50 CYP2A13 Coincubation) of the same compound?
The IC50 was 2400 ± 330 nM.

What about the Ki (CYP2A13 [3]; coumarin 0–40 µM) of the same compound?
The Ki was 1080 ± 50 nM.

And the kinact (CYP2A13 [4]; pre-incubation 0-30 min with NADPH)?
Its kinact is 0.000833 s⁻¹.

What about the KI (inactivation) (CYP2A13 [4]; pre-incubation 0-30 min with NADPH, read-out: CYP2A13 KI (inactivation constant)) of the same compound?
Its KI (inactivation) is 670 ± 80 nM.

And the “KI, CYP2A13 (in Figure 2)” value (CYP2A13 [4]; [15])?
The value was 0.67 ± 0.08.

And the activity at 5 µM (CYP2A6 [5]; [8])?
The activity at 5 µM was 11.2 ± 2.96%.

And the activity at 5 µM (CYP2A6 [5]; [9])?
The activity at 5 µM was 8.42 ± 0.9%.

What about the activity at 5 µM (CYP2A6 [5]; [10]) of the same compound?
Its activity at 5 µM is 12.9 ± 3.47%.

What about the activity at 5 µM (CYP2A6 [5]; [11]) of the same compound?
Its activity at 5 µM is 14.4 ± 1.41%.

And the activity at 5 µM (CYP2A6 [5]; [12])?
Its activity at 5 µM is 10.1 ± 1.84%.

What about the activity at 5 µM (CYP2A6 [5]; [13]) of the same compound?
The activity at 5 µM was 82.4 ± 2.49%.

And the activity at 5 µM (CYP2A6 [5]; [14])?
The activity at 5 µM was 12.5 ± 1.93%.

And the “inhibition of CYP2A6-mediated nicotine metabolism” value (CYP2A6 [6])?
Its value is “showed inhibition”.

What about the kinact (CYP2A6 [7]; human, recombinant human CYP2A6, probe coumarin, pre-incubation 0-30 min with NADPH) of the same compound?
The kinact was 0.00167 s⁻¹.

And the KI (inactivation) (CYP2A6 [7]; human, recombinant human CYP2A6, probe coumarin, pre-incubation 0-30 min with NADPH, read-out: CYP2A6 KI (inactivation constant))?
Its KI (inactivation) is 110 ± 20 nM.

What about the “KI, CYP2A6 (in Figure 2)” value (CYP2A6 [7]; [15]) of the same compound?
The value was 0.11 ± 0.02.
